In patent publication US11629171B2, “Beta-hairpin peptidomimetics” (POLYPHOR AG, priority 2017, dated 2023):
Values after ≈ are worked out from the molar mass of the structure shown. Where a SMILES comes first, the peptide text is derived from it. Bridges are numbered along the chain shown (N, C = ends). Roman numbers before positions name the chains, in order. [ ]: non-standard residue; d: D form. The star is where a group is joined. Leu(3R-OH) = CC(C)[C@@H](O)[C@H](N)C(=O)O; Thr(ol) = C[C@@H](O)[C@H](N)CO; Tle = CC(C)(C)[C@H](N)C(=O)O; Hiv = CC(C)[C@H](O)C(=O)O; Isovaleryl = CC(C)CC(=O)*; dDab = NCC[C@@H](N)C(=O)O; hSer = N[C@@H](CCO)C(=O)O; Dab = NCC[C@H](N)C(=O)O; Nva = CCC[C@H](N)C(=O)O; Dap = NC[C@H](N)C(=O)O; NHCH2CH2OH = OCCN*

What was measured:
Format in all cases: cell-based
[1] = tested on: human red blood cells (hRBC); assay: Hemolysis; details: red cells of human, 1 h, 200
Procedure, shortened: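 Hemoglobin release from PBS-washed hRBC at 20% (v/v), incubated 1 h at 37° C with peptides at 200 μg/mL, is measured at 540 nm. Values are blank corrected and given as a fraction of Triton X-100 lysis × 100%.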

[2] = tested on: Escherichia coli ATCC 25922; details: ATCC 25922
Procedure, shortened: (§1)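 MIC in μg/mL, read as absence of visible growth after 18-20 h incubation at 35° C, by standard CLSI microdilution. Peptides tested in two-fold serial dilution in cation-adjusted MH-II broth containing 0.002% (final) Polysorbate 80, against roughly 10^6 CFU/mL inocula.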

[3] = tested on: Pseudomonas aeruginosa ATCC 27853; details: ATCC 27853
Procedure, shortened: as §1

[4] = tested on: Acinetobacter baumannii 872842; details: 872842
Procedure, shortened: as §1

[5] = tested on: Klebsiella pneumoniae SSI #3010; details: SSI #3010
Procedure, shortened: as §1

[6] = tested on: Acinetobacter baumannii DSM 30008; details: DSM 30008
Procedure, shortened: as §1

[7] = tested on: Klebsiella pneumoniae 968733; details: 968733
Procedure, shortened: as §1

[8] = tested on: Enterobacter cloacae 848840; details: 848840
Procedure, shortened: as §1

Escherichia coli 926415 = details: 926415
Procedure, shortened: as §1

| Compound | Hemolysis at 200 μg/mL [1] | MIC [2] | MIC [3] | MIC [4] | MIC [5] | MIC [6] | MIC [7] | MIC [8] | MIC (Escherichia coli 926415) | Escherichia coli ATCC 25922 MIC [2] | Pseudomonas aeruginosa ATCC 27853 MIC [3] | Klebsiella pneumoniae SSI #3010 MIC [5] | Acinetobacter baumannii DSM 30008 MIC [6] |
| --- | --- | --- | --- | --- | --- | --- | --- | --- | --- | --- | --- | --- | --- |
| CCC[C@@H]1NC(=O)[C@@H](CC(C)C)NC(=O)[C@H](CCN)NC(=O)[C@@H](NC(=O)[C@H](CN)NC(=O)[C@@H](NC(=O)[C@H](CCN)NC(=O)CC[C@@H]2NC(=O)[C@H](CCN)NC(=O)[C@H](Cc3ccc(O)cc3)NC(=O)[C@@H](NC(=O)[C@@H](NC(C)=O)C(C)C)CSSC[C@@H](C(=O)N[C@H](C(N)=O)[C@@H](C)O)NC(=O)[C@H](C(C)(C)C)NC(=O)[C@H](CO)NC(=O)[C@H](Cc3c[nH]c4ccccc34)NC(=O)[C@H](CO)NC(=O)[C@@H](CCN)NC2=O)[C@@H](C)O)CCNC(=O)[C@H]([C@@H](C)O)NC(=O)[C@H](CCN)NC(=O)[C@H](CCN)NC1=O [Ex. 141] (I: Ac-VCY[Dab]E[dDab]SWS[Tle]CT-NH2 / II: [Dab]T[Dap][Dab][Dab][dL][Nva][Dab][Dab]T; disulfide I:2-I:11; amide I:5-II:N; lactam II:4-II:C) | 2% | 0.03125 µg/mL (≈ 0.013 µM) | 0.125 µg/mL (≈ 0.0518 µM) | 0.0625 µg/mL (≈ 0.0259 µM) | 0.03125 µg/mL (≈ 0.013 µM) | 0.03125 µg/mL (≈ 0.013 µM) | 0.03125 µg/mL (≈ 0.013 µM) | 0.0625 µg/mL (≈ 0.0259 µM) | 0.03125 µg/mL (≈ 0.013 µM) |  |  |  |  |
| CC(=O)N[C@@H](CC(C)C)C(=O)N[C@H]1CSSC[C@@H](C(=O)N[C@@H](CO)C(N)=O)NC(=O)[C@H](C(C)C)NC(=O)[C@H](CO)NC(=O)[C@H](Cc2c[nH]c3ccccc23)NC(=O)[C@H](CO)NC(=O)[C@@H](CCN)NC(=O)[C@H](CCC(=O)N[C@@H](CCN)C(=O)N[C@H](C(=O)N[C@@H](CN)C(=O)N[C@H]2CCNC(=O)[C@H]([C@@H](C)O)NC(=O)[C@H](CCN)NC(=O)[C@H](CCN)NC(=O)[C@H](CC(C)C)NC(=O)[C@@H](CC(C)C)NC(=O)[C@H](CCN)NC2=O)[C@@H](C)O)NC(=O)[C@H](CCN)NC(=O)[C@H](Cc2ccc(O)cc2)NC1=O [Ex. 314] (I: Ac-LCY[Dab]E[dDab]SWSVCS-NH2 / II: [Dab]T[Dap][Dab][Dab][dL]L[Dab][Dab]T; disulfide I:2-I:11; amide I:5-II:N; lactam II:4-II:C) | 2% |  |  | 0.0625 µg/mL (≈ 0.0259 µM) |  |  | 0.125 µg/mL (≈ 0.0518 µM) | 0.125 µg/mL (≈ 0.0518 µM) | 0.0625 µg/mL (≈ 0.0259 µM) | 0.01562 µg/mL | 0.25 µg/mL | 0.125 µg/mL | 0.01562 µg/mL |
| CC(=O)N[C@H](C(=O)N[C@H]1CSSC[C@@H](C(=O)N[C@H](C(N)=O)[C@@H](C)O)NC(=O)[C@H](C(C)(C)C)NC(=O)[C@H](CCC(=O)O)NC(=O)[C@H](Cc2c[nH]c3ccccc23)NC(=O)[C@H](CCN)NC(=O)[C@@H](CCN)NC(=O)[C@H](CCC(=O)N[C@@H](CCN)C(=O)N[C@H](C(=O)N[C@@H](CN)C(=O)N[C@H]2CCNC(=O)[C@H]([C@@H](C)O)NC(=O)[C@H](CCN)NC(=O)[C@H](CCN)NC(=O)[C@H]([C@H](O)C(C)C)NC(=O)[C@@H](CC(C)C)NC(=O)[C@H](CCN)NC2=O)[C@@H](C)O)NC(=O)[C@H](CO)NC(=O)[C@H](Cc2ccc(O)cc2)NC1=O)C(C)C [Ex. 134] (I: Ac-VCYSE[dDab][Dab]WE[Tle]CT-NH2 / II: [Dab]T[Dap][Dab][Dab][dL][Leu(3R-OH)][Dab][Dab]T; disulfide I:2-I:11; amide I:5-II:N; lactam II:4-II:C) | 3% | 0.03125 µg/mL (≈ 0.0126 µM) | 0.125 µg/mL (≈ 0.0503 µM) | 0.0625 µg/mL (≈ 0.0252 µM) | 0.03125 µg/mL (≈ 0.0126 µM) | 0.03125 µg/mL (≈ 0.0126 µM) | 0.125 µg/mL (≈ 0.0503 µM) | 0.125 µg/mL (≈ 0.0503 µM) | 0.125 µg/mL (≈ 0.0503 µM) |  |  |  |  |
| CC(=O)N[C@H](C(=O)N[C@H]1CSSC[C@@H](C(=O)N[C@@H](CO)C(N)=O)NC(=O)[C@H](C(C)C)NC(=O)[C@H](CCC(=O)O)NC(=O)[C@H](Cc2c[nH]c3ccccc23)NC(=O)[C@H](CCO)NC(=O)[C@@H](CCN)NC(=O)[C@H](CCC(=O)N[C@@H](CCN)C(=O)N[C@H](C(=O)N[C@@H](CN)C(=O)N[C@H]2CCNC(=O)[C@H]([C@@H](C)O)NC(=O)[C@H](CCN)NC(=O)[C@H](CCN)NC(=O)[C@H](CC(C)C)NC(=O)[C@@H](CC(C)C)NC(=O)[C@H](CCN)NC2=O)[C@@H](C)O)NC(=O)[C@H](CCN)NC(=O)[C@H](Cc2ccc(O)cc2)NC1=O)C(C)C [Ex. 155] (I: Ac-VCY[Dab]E[dDab][hSer]WEVCS-NH2 / II: [Dab]T[Dap][Dab][Dab][dL]L[Dab][Dab]T; disulfide I:2-I:11; amide I:5-II:N; lactam II:4-II:C) | 1% | 0.0625 µg/mL (≈ 0.0255 µM) | 0.125 µg/mL (≈ 0.0509 µM) | 0.125 µg/mL (≈ 0.0509 µM) | 0.125 µg/mL (≈ 0.0509 µM) | 0.0625 µg/mL (≈ 0.0255 µM) | 0.5 µg/mL (≈ 0.204 µM) | 0.125 µg/mL (≈ 0.0509 µM) | 0.5 µg/mL (≈ 0.204 µM) |  |  |  |  |
| CC(C)CC(=O)N[C@H]1CSSC[C@@H](C(=O)NCCO)NC(=O)[C@H](C(C)(C)C)NC(=O)[C@H](CO)NC(=O)[C@H](Cc2c[nH]c3ccccc23)NC(=O)[C@H]([C@@H](C)O)NC(=O)[C@@H](CCN)NC(=O)[C@H](CCC(=O)N[C@@H](CCN)C(=O)N[C@H](C(=O)N[C@@H](CCN)C(=O)N[C@H]2CCNC(=O)[C@H]([C@@H](C)O)NC(=O)[C@H](CCN)NC(=O)[C@H](CCN)NC(=O)[C@H](CC(C)C)NC(=O)[C@@H](CC(C)C)NC(=O)[C@H](CCN)NC2=O)[C@@H](C)O)NC(=O)[C@H](CN)NC(=O)[C@H](Cc2ccc(O)cc2)NC1=O [Example 1] (I: Isovaleryl-CY[Dap]E[dDab]TWS[Tle]C-NHCH2CH2OH / II: [Dab]T[Dab][Dab][Dab][dL]L[Dab][Dab]T; disulfide I:1-I:10; amide I:4-II:N; lactam II:4-II:C) | <1% | 0.125 µg/mL (≈ 0.0537 µM) | 0.125 µg/mL (≈ 0.0537 µM) | 1 µg/mL (≈ 0.43 µM) | 0.5 µg/mL (≈ 0.215 µM) | 0.125 µg/mL (≈ 0.0537 µM) | 2 µg/mL (≈ 0.86 µM) | 4 µg/mL (≈ 1.72 µM) | 1 µg/mL (≈ 0.43 µM) |  |  |  |  |
| CC(C)C[C@@H]1NC(=O)[C@@H](CC(C)C)NC(=O)[C@H](CCN)NC(=O)[C@@H](NC(=O)[C@H](CCN)NC(=O)[C@H](CO)NC(=O)[C@H](CCN)NC(=O)CC[C@@H]2NC(=O)[C@H](CN)NC(=O)[C@H](Cc3ccc(O)cc3)NC(=O)[C@@H](NC(=O)[C@@H](O)C(C)C)CSSC[C@@H](C(=O)NCCO)NC(=O)[C@H](C(C)(C)C)NC(=O)[C@H](CO)NC(=O)[C@H](Cc3c[nH]c4ccccc34)NC(=O)[C@H]([C@@H](C)O)NC(=O)[C@@H](CCN)NC2=O)CCNC(=O)[C@H]([C@@H](C)O)NC(=O)[C@H](CCN)NC(=O)[C@H](CCN)NC1=O [Ex. 59] (I: H-[Hiv]CY[Dap]E[dDab]TWS[Tle]C-NHCH2CH2OH / II: [Dab]S[Dab][Dab][Dab][dL]L[Dab][Dab]T; disulfide I:2-I:11; amide I:5-II:N; lactam II:4-II:C) | <1% | 0.125 µg/mL (≈ 0.0537 µM) | 0.125 µg/mL (≈ 0.0537 µM) | 0.25 µg/mL (≈ 0.107 µM) | 0.125 µg/mL (≈ 0.0537 µM) | 0.125 µg/mL (≈ 0.0537 µM) | 0.25 µg/mL (≈ 0.107 µM) | 1 µg/mL (≈ 0.429 µM) | 0.125 µg/mL (≈ 0.0537 µM) |  |  |  |  |
| CC(C)C[C@@H]1NC(=O)[C@@H](CC(C)C)NC(=O)[C@H](CCN)NC(=O)[C@@H](NC(=O)[C@H](CCN)NC(=O)[C@@H](NC(=O)[C@H](CCN)NC(=O)CC[C@@H]2NC(=O)[C@@H](NC(=O)[C@H](Cc3ccc(O)cc3)NC(=O)[C@H](CCC(=O)O)NC(=O)[C@@H](O)C(C)C)CSSC[C@@H](C(=O)N[C@H](C(=O)N[C@@H](CCN)C(=O)N[C@H](CO)[C@@H](C)O)C(C)(C)C)NC(=O)[C@H](Cc3c[nH]c4ccccc34)NC(=O)[C@H]([C@@H](C)O)NC(=O)[C@@H](CCN)NC2=O)[C@@H](C)O)CCNC(=O)[C@H]([C@@H](C)O)NC(=O)[C@H](CCN)NC(=O)[C@H](CCN)NC1=O [Ex. 190] (I: H-[Hiv]EYCE[dDab]TWC[Tle][Dab][Thr(ol)] / II: [Dab]T[Dab][Dab][Dab][dL]L[Dab][Dab]T; disulfide I:4-I:9; amide I:5-II:N; lactam II:4-II:C) | <1% | 0.0625 µg/mL (≈ 0.0256 µM) | 0.25 µg/mL (≈ 0.102 µM) | 0.5 µg/mL (≈ 0.205 µM) | 0.125 µg/mL (≈ 0.0512 µM) | 0.0625 µg/mL (≈ 0.0256 µM) | 4 µg/mL (≈ 1.64 µM) | 0.5 µg/mL (≈ 0.205 µM) | 1 µg/mL (≈ 0.409 µM) |  |  |  |  |
